Where a name gives a salt, the structure may show the parent alone.
How the values were obtained:
cholesterol [1] = conditions: literature; cited from earlier work
cholesterol [2] = conditions: literature; cited from earlier work; remark: listed apart in the source
[3] = system: HEP-G2 cells (cholesterol biosynthesis); assay: Inhibition of cholesterol biosynthesis in cell cultures of HEP-G2 cells (14C-acetate into 14C-cholesterol); assay type: cell-based; conditions: Homo sapiens, HepG2, Table 2, preincubation for example 1 hour, 14C-acetate for example 3 hours, read-out: IC50 (concentration of the compound which brings about 50% inhibition of cholesterol biosynthesis)
Procedure: Monolayers of HEP-G2 cells in lipoprotein-free nutrient medium were preincubated with appropriate concentrations of the test substances for a defined time (for example 1 hour), the labeled precursor, for example sodium ^14 C-acetate was added and then the incubation was continued (for example for 3 hours). Addition of an internal standard (^3 H-cholesterol) was followed by alkaline hydrolysis of some of the cells. The lipids were extracted from the hydrolyzed cells using chloroform/methanol. Carrier cholesterol was added to this lipid mixture which was then subjected to preparative thin-layer chromatography, the cholesterol band was visualized with iodine vapor and then isolated, and the amount of ^14 C-cholesterol formed from the ^14 C-precursor was determined by scintigraphy. Cellular protein was determined in an aliquot of the cells, so that it is possible to calculate the amount of ^14 C-cholesterol formed per mg of cellular protein in unit time.
in nmol of ^14 C-cholesterol/mg of cell protein
in comparison with the solvent control.
Using the method described above, the following values for the inhibition of cholesterol biosynthesis (in HEP-G2 cells) were determined for the compounds according to the invention, for example (the IC50 /mol/liter is the concentration of the compound which brings about 50% inhibition of cholesterol biosynthesis) (Tab. 2): […]

HMG-CoA reductase = molecular target: T1, HMG-CoA reductase (Rattus norvegicus, UniProt P51639); assay: HMG-CoA reductase activity in solubilized enzyme preparations from rat liver microsomes (14C-HMG-CoA); assay type: biochemical; conditions: Table 1; solubilized rat liver microsomal enzyme; mean of 3 parallel samples; read-out: IC50 (molar concentration of the compound required for 50% inhibition of HMG-CoA reductase)
T1 construct: solubilized enzyme preparations from rat liver microsomes; from tissue; host or cells: rat liver microsomes (cholestyramine-induced), solubilized
T1 sequence (P51639 1-887): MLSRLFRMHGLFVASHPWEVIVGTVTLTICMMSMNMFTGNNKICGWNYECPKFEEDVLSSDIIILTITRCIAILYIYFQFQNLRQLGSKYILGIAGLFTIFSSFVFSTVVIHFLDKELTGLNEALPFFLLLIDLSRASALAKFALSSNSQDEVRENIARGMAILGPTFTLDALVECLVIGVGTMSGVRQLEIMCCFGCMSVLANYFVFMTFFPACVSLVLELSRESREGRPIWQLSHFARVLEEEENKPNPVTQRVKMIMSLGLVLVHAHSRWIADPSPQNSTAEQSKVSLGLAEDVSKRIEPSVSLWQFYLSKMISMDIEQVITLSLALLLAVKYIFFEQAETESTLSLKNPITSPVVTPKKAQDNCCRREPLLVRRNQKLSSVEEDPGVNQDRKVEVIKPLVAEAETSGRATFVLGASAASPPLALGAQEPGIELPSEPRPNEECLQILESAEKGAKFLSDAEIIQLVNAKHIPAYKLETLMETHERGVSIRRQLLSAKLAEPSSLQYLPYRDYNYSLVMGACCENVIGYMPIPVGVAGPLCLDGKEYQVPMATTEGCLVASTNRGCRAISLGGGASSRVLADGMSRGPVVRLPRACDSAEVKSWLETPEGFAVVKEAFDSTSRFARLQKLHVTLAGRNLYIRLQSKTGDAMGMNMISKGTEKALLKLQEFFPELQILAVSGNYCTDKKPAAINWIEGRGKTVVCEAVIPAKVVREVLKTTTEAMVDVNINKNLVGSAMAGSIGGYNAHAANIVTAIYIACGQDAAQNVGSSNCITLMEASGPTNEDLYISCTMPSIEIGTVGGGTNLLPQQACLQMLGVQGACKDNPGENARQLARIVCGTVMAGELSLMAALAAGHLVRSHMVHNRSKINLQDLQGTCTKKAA
Procedure: The HMG-CoA reductase activity was measured on solubilized enzyme preparations from rat liver microsomes induced, after a changeover in the day/night rhythm, with cholestyramine (® CUEMID). The substrate used was (S,R)-^14 C-HMG-CoA, and the NADPH concentration was maintained during the incubation by a regenerating system. ^14 C-Mevalonate was separated from the substrate and other products (for example ^14 C-HMG) by column elution, the elution profile of each individual sample being determined. ^3 H-Mevalonate was not always included in the determination because relative data on the inhibitory effects were required. […] Each individual value was the mean formed from 3 parallel samples. The significance of the mean differences between product-free and product-containing samples was assessed using the t test.

[4] = system: 3-hydroxy-3-methylglutaryl-coenzyme A reductase (HMG-CoA reductase); conditions: cited from earlier work

## CC(O)(CC(=O)O)CC(=O)O [3-Hydroxy-3-methylglutaric acid]
Cholesterol [1]
  cholesterol-lowering action in the rat: significant cholesterol-lowering action
Cholesterol [2]
  cholesterol-lowering action in human experiments: significant cholesterol-lowering action

## Cc1nc(-c2ccccc2)cc(-c2ccc(F)cc2)c1/C=C/[C@@H]1C[C@@H](O)CC(=O)O1 [Example 11c]
[3]
  IC50: 90 nM

## Cc1cc(-c2ccc(F)cc2)c(/C=C/[C@@H]2C[C@@H](O)CC(=O)O2)c(C(C)C)n1 [Example 11d]
[3]
  IC50: 50 nM

## CC(C)c1nc(-c2ccccc2)cc(-c2ccc(F)cc2)c1/C=C/[C@@H]1C[C@@H](O)CC(=O)O1 [Example 11e]
[3]
  IC50: 5 nM

## CC(C)c1nc(-c2ccccc2)nc(-c2ccc(F)cc2)c1/C=C/[C@@H]1C[C@@H](O)CC(=O)O1 [Example 11o]
[3]
  IC50: 5 nM

## Cc1cc(-c2ccc(F)cc2)c(/C=C/[C@@H](O)C[C@@H](O)CC(=O)O)c(C)n1 [Example 13a, (E)- and (Z)-(3R,5S)-3,5-Dihydroxy-7-(2,6-dimethyl-4-(4-fluorophenyl)pyridin-3-yl)-6-heptenoic acid potassium salts]
HMG-CoA reductase
  IC50: 260 nM

## CC(C)c1nc(-c2ccc(O)cc2)cc(-c2ccc(F)cc2)c1/C=C/[C@@H](O)C[C@@H](O)CC(=O)O [Example 13ab]
HMG-CoA reductase
  IC50: 1.5 nM

## O=C(O)C[C@H](O)C[C@H](O)/C=C/c1c(-c2ccc(F)cc2)cc(-c2ccccc2)nc1C1CC1 [Example 13ac]
HMG-CoA reductase
  IC50: 1 nM

## Cc1cc(-c2ccc(Cl)cc2)c(/C=C/[C@@H](O)C[C@@H](O)CC(=O)O)c(C)n1 [Example 13b]
HMG-CoA reductase
  IC50: 94 nM

## Cc1nc(-c2ccccc2)cc(-c2ccc(F)cc2)c1/C=C/[C@@H](O)C[C@@H](O)CC(=O)O [Example 13c]
HMG-CoA reductase
  IC50: 38 nM

## Cc1cc(-c2ccc(F)cc2)c(/C=C/[C@@H](O)C[C@@H](O)CC(=O)O)c(C(C)C)n1 [Example 13d]
HMG-CoA reductase
  IC50: 9.1 nM

## CC(C)c1nc(-c2ccccc2)cc(-c2ccc(F)cc2)c1/C=C/[C@@H](O)C[C@@H](O)CC(=O)O [Example 13e]
HMG-CoA reductase
  IC50: 2.9 nM

## CC(C)c1cc(-c2ccccc2)nc(-c2ccc(F)cc2)c1/C=C/[C@@H](O)C[C@@H](O)CC(=O)O [Example 13f]
HMG-CoA reductase
  IC50: 4 nM

## CC(C)(C)c1nc(-c2ccccc2)cc(-c2ccc(F)cc2)c1/C=C/[C@@H](O)C[C@@H](O)CC(=O)O [Example 13g]
HMG-CoA reductase
  IC50: 18 nM

## Cc1ccc(C)c(-c2cc(-c3ccc(F)cc3)c(/C=C/[C@@H](O)C[C@@H](O)CC(=O)O)c(C(C)C)n2)c1 [Example 13i]
HMG-CoA reductase
  IC50: 5 nM

## CC(C)c1nc(-c2ccc(F)cc2)cc(-c2ccc(F)cc2)c1/C=C/[C@@H](O)C[C@@H](O)CC(=O)O [Example 13j]
HMG-CoA reductase
  IC50: 2.3 nM

## Cc1nc(C)c(/C=C/[C@@H](O)C[C@@H](O)CC(=O)O)c(-c2ccc(F)cc2)n1 [Example 13k]
HMG-CoA reductase
  IC50: 500 nM

## Cc1nc(C)c(/C=C/[C@@H](O)C[C@@H](O)CC(=O)O)c(-c2ccc(Cl)cc2)n1 [Example 13l]
HMG-CoA reductase
  IC50: 600 nM

## CC(C)c1nc(-c2ccccc2)nc(-c2ccc(F)cc2)c1/C=C/[C@@H](O)C[C@@H](O)CC(=O)O [Example 13o]
HMG-CoA reductase
  IC50: 3 nM

## CC(C)c1cc(-c2ccc(F)cc2)c(/C=C/[C@@H](O)C[C@@H](O)CC(=O)O)c(C(C)C)n1 [Example 13q]
HMG-CoA reductase
  IC50: 2.5 nM

## CC(C)c1nc(C(C)(C)C)cc(-c2ccc(F)cc2)c1/C=C/[C@@H](O)C[C@@H](O)CC(=O)O [Example 13r]
HMG-CoA reductase
  IC50: 1.2 nM

## CC(C)c1nc(C2CCCCC2)cc(-c2ccc(F)cc2)c1/C=C/[C@@H](O)C[C@@H](O)CC(=O)O [Example 13s]
HMG-CoA reductase
  IC50: 3.7 nM

## CC(C)c1nc(-c2ccc(F)cc2)c(/C=C/[C@@H](O)C[C@@H](O)CC(=O)O)c(C(C)C)n1 [Example 13v]
HMG-CoA reductase
  IC50: 2.5 nM

## CC(C)c1nc(-c2ccc(F)cc2)nc(-c2ccc(F)cc2)c1/C=C/[C@@H](O)C[C@@H](O)CC(=O)O [Example 13w]
HMG-CoA reductase
  IC50: 0.9 nM

## CC[C@H](C)C(=O)O[C@H]1CCC=C2C=C[C@H](C)[C@H](CC[C@@H]3C[C@@H](O)CC(=O)O3)[C@H]21 [compactin]
[4]
  inhibition of HMG-CoA reductase (literature): inhibition
